Data reported in patent US20230355596A1, “COMPOSITIONS AND METHODS OF USING NMDAR INHIBITORS AND KINASE INHIBITORS TO TREAT LIVER CANCER” (The University of Hong Kong, priority 2022, published 2023).
Where two headings read alike, the source gives them in different places.

Columns and labels:
[1] = test system: NMDAR subunits; settings: cited from earlier work
[2] = test system: pancreatic cancer cells; settings: cited from earlier work
[3] = test system: MHCC97L cells; test: MTT cell viability assay and drug interaction analysis; format: cell-based, human; settings: single drug
[4] = test system: HCC patients; settings: phase III, first line; cited from earlier work
[5] = test system: HCC patients; settings: phase III BRISK-PS, secondary treatment; cited from earlier work
[6] = test system: HCC patients; settings: phase II, cited from earlier work
[7] = test system: advanced HCC patients; settings: 28 patients; cited from earlier work
[8] = test system: HCC patients; settings: single arm phase II; cited from earlier work
[9] = test system: HCC patients; settings: phase III versus sorafenib; cited from earlier work

C[C@]12N[C@H](Cc3ccccc31)c1ccccc12 [MK-801, Dizocilpine (MK-801)]
NMDAR subunit selectivity [1]: blocks all NMDAR subunits in a non-selective manner | toxicity / safety as therapeutic agent [1]: poses high toxicity and is less tolerated | tumor growth and invasiveness of pancreatic cancer cells [2]: reduced tumor growth and invasiveness | HCC growth, NMDAR inhibitor alone [3]: did not significantly suppress

Cc1cc2c(F)c(Oc3ncnn4cc(OC[C@@H](C)O)c(C)c34)ccc2[nH]1 [brivanib]
Median survival [4]: 9.5 months | discontinuation rate [4]: 43% | median length of overall survival [5]: 9.4 months | median overall survival ([6]; first line): 10 months | median overall survival ([6]; second line): 9.5 months

CO[C@H]1C[C@@H]2CC[C@@H](C)[C@@](O)(O2)C(=O)C(=O)N2CCCC[C@H]2C(=O)O[C@H]([C@H](C)C[C@@H]2CC[C@@H](OCCO)[C@H](OC)C2)CC(=O)[C@H](C)/C=C(\C)[C@@H](O)[C@@H](OC)C(=O)[C@H](C)C[C@H](C)/C=C/C=C/C=C/1C [everolimus]
median progression free survival [7]: 3.8 months | overall survival [7]: 8.4 months

Cc1ccc(F)c(NC(=O)Nc2ccc(-c3cccc4[nH]nc(N)c34)cc2)c1 [linifanib]
safety profile [8]: acceptable safety profile

CCN(CC)CCNC(=O)c1c(C)[nH]c(/C=C2\C(=O)Nc3ccc(F)cc32)c1C [sunitinib]
trial outcome [9]: terminated early due to increased side effects and futility concerns
